≈ marks a conversion by molar mass, not a printed value. Calls of active or inactive are those of the source. The calls are words filed in the database; no cut-off is given here.
Columns and labels:
physchem = conditions: buffer, pH 7.4
Description: Lipophilicity, log D of the compound at pH 7.4 by HPLC analysis

in vitro [1] = conditions: human, Caco-2, pH 7.4
Description: (§1) Apparent permeability from apical to basolateral side in human Caco2 cells at 10 uM at pH 7.4 after 60 mins by LC-MS analysis

P2Y purinoceptor 12 [2] = biological target: T1, P2Y purinoceptor 12 (Homo sapiens, UniProt Q9H244)
Description: Antagonist activity at P2Y12 receptor (unknown origin) assessed as inhibition of ADP-induced [35S]GTPgammaS binding after 45 mins by scintillation counting analysis

[3] = Aqueous solubility of the compound; assay type: physicochemical; conditions: buffer
[4] = Apparent permeability from apical to basolateral side in human Caco2 cells at 10 uM at pH 6.5 after 60 mins by LC-MS analysis; assay type: ADME, cell-based; conditions: Caco-2, pH 6.5
in vitro [5] = conditions: human, liver microsomes
Description: Half life in human liver microsomes at 1 mg/ml

[6] = biological target: P2Y purinoceptor 1 (Homo sapiens) (UniProt P47900); test: Binding affinity to P2Y1 receptor (unknown origin) at 10 uM
P2Y purinoceptor 1 (Homo sapiens), sequence (P47900 whole entry, the tested form may be a part): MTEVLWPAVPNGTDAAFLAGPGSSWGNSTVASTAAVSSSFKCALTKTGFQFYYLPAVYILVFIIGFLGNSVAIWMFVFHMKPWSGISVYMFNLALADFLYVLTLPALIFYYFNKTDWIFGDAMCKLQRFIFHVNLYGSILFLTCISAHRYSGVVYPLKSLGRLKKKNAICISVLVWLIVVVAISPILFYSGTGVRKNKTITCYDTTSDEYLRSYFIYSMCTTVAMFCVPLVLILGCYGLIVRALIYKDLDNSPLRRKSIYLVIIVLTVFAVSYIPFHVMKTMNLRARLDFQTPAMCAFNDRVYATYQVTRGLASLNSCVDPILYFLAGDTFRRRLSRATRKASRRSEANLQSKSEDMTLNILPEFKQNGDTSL

Canis familiaris [7] = test: Antithrombotic activity in conscious dog assessed as inhibition of platelet aggregation administered via infusion; assay type: functional, Canis lupus familiaris
P2Y purinoceptor 12 [8] = biological target: T1, P2Y purinoceptor 12; test: Displacement of [125I]AZ11931285 from human P2Y12 receptor expressed in CHOK1 cell membrane after 30 seconds; design: species or system CHO-K1
Canis familiaris [9] = test: Toxicity in dog Folt's model of arterial thrombosis assessed as prolongation of bleeding time at 0.015 umol/kg/min; assay type: organism-based, Canis lupus familiaris; conditions: in vivo, iv
Canis familiaris [10] = test: Toxicity in conscious dog assessed as prolongation of bleeding time at 1.6 umol/kg/min administered via infusion relative to control; assay type: organism-based, Canis lupus familiaris; conditions: in vivo, iv
[11] = biological target: T2, Thromboxane A2 receptor (Homo sapiens) (UniProt P21731); test: Binding affinity to thromboxane A2 receptor (unknown origin) at 10 uM
T2 sequence (whole entry): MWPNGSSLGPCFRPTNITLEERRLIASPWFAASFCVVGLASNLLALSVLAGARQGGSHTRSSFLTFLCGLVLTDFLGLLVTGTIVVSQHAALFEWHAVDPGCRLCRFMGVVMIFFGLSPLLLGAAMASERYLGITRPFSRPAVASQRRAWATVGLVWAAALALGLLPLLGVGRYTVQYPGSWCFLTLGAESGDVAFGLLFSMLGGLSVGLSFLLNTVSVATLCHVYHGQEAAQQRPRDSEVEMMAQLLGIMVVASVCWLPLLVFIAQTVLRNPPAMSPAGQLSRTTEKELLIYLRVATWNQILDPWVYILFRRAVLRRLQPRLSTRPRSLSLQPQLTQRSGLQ

P2Y purinoceptor 12 [12] = biological target: T1, P2Y purinoceptor 12; test: Displacement of [125I]AZ11931285 from human P2Y12 receptor expressed in CHOK1 cell membrane after 10 seconds; design: species or system CHO-K1
[13] = Half life in Beagle dog at 1 umol/kg, iv; assay type: ADME, organism-based, Canis lupus familiaris; conditions: in vivo
Plasma = test: Fraction unbound in Beagle dog plasma at 37 degC after 18 hrs by equilibrium dialysis technique; assay type: ADME, cell-free, Canis lupus familiaris
[14] = AUC in Beagle dog at 1 umol/kg, iv; assay type: ADME, organism-based, Canis lupus familiaris; conditions: plasma
P2Y purinoceptor 12 [15] = biological target: T1, P2Y purinoceptor 12; test: Displacement of [125I]AZ11931285 from human P2Y12 receptor expressed in CHOK1 cell membrane after 60 seconds; design: species or system CHO-K1
P2Y purinoceptor 12 [16] = biological target: T1, P2Y purinoceptor 12; test: Displacement of [125I]AZ11931285 from human P2Y12 receptor expressed in CHOK1 cell membrane after 60 mins; design: species or system CHO-K1
Canis familiaris [17] = organism: Canis familiaris; test: Antithrombotic activity in dog Folt's model of arterial thrombosis assessed as inhibition of platelet aggregation; assay type: functional, Canis lupus familiaris
[18] = biological target: Platelet-activating factor receptor (Homo sapiens) (UniProt P25105); test: Binding affinity to PAF receptor (unknown origin) at 10 uM
Platelet-activating factor receptor (Homo sapiens), sequence (P25105 whole entry): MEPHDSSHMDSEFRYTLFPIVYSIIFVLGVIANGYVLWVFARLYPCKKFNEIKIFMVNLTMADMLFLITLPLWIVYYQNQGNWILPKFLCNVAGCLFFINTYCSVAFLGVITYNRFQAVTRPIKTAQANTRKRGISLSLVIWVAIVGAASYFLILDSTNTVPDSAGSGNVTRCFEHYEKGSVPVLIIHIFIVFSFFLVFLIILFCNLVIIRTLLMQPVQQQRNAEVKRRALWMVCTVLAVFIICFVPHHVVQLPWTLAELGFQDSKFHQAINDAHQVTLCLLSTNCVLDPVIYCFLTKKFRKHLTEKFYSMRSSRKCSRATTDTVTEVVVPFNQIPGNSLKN

Canis familiaris [19] = test: Toxicity in dog Folt's model of arterial thrombosis assessed as prolongation of bleeding time at 0.001 to 0.1 umol/kg/min; assay type: organism-based, Canis lupus familiaris; conditions: in vivo, iv
Canis familiaris [20] = test: Toxicity in conscious dog assessed as prolongation of bleeding time at 0.02 to 8700 nmol/kg/min administered via infusion relative to control; assay type: organism-based, Canis lupus familiaris; conditions: in vivo, iv
Caco-2 = conditions: human, caco-2, pH 7.4, 1 h, 10 µM
Description: as §1

T1 sequence (Q9H244 whole entry): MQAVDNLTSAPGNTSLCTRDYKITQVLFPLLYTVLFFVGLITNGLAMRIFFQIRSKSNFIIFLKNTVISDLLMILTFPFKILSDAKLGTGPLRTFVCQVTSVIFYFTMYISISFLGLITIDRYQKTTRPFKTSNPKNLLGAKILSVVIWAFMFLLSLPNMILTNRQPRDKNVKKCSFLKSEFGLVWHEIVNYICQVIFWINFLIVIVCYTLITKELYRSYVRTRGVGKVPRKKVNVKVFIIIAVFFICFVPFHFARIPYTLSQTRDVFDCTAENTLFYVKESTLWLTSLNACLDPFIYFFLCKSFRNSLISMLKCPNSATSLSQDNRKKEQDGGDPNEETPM

Row | SMILES | logD (physchem) | Papp A→B at 1 h, 10 µM (in vitro [1]) | IC50 (P2Y purinoceptor 12 [2]) | solubility [3] | Papp A→B at 1 h, 10 µM [4] | half-life (in vitro [5]) | also measured
1 | CCCC(=O)c1cc(C#N)c(N2CCC(C(=O)NS(=O)(=O)Cc3ccccc3)CC2)nc1CCC | 3.7 | 1.2 ×10⁻⁶ cm/s | 270 nM |  |  |  | 
2 | CCCC(=O)c1cc(C#N)c(N2CCC(C(=O)NS(=O)(=O)Cc3ccccc3)CC2)nc1OC | 3 |  |  |  |  |  | 
3 | CCCC(=O)c1cc(C#N)c(N2CCC(C(=O)NS(=O)(=O)Cc3ccccc3Cl)CC2)nc1C | 3.1 |  | 270 nM | > 100 µM | 0.4 ×10⁻⁶ cm/s | > 1.92 h | 
4 | CCCC(=O)c1cc(C#N)c(N2CCC(C(=O)NS(=O)(=O)Cc3ccc(C)c(F)c3)CC2)nc1C | 3.4 |  | 130 nM | > 100 µM | 0.7 ×10⁻⁶ cm/s | > 1.92 h | 
5 | CCCC(=O)c1cc(C#N)c(N2CCC(C(=O)NS(=O)(=O)C(C)c3ccccc3)CC2)nc1C (racemic) | 3.3 |  | 190 nM | > 100 µM | 1 ×10⁻⁶ cm/s | > 1.92 h | 
6 | CCOC(=O)c1cc(C#N)c(N2CCC(C(=O)NS(=O)(=O)Cc3ccccc3)CC2)nc1C | 2.8 |  |  |  |  | 1 h | Activity [6]: inactive; Activity (Canis familiaris [19]): Non-toxic; ID80 (Canis familiaris [7]): 0.44 µmol/kg/min; IC50 (P2Y purinoceptor 12 [8]): 22 nM; Activity [11]: inactive; IC50 (P2Y purinoceptor 12 [12]): 44 nM; half-life [13]: 5.1 h; Activity (Canis familiaris [20]): Non-toxic; AUC [14]: 5.9 µM·h; IC50 (P2Y purinoceptor 12 [15]): 14 nM; IC50 (P2Y purinoceptor 12 [16]): 9 nM; ID80 (Canis familiaris [17]): 0.009 µmol/kg/min; Activity [18]: inactive; Papp (Caco-2): 1 ×10⁻⁶ cm/s
7 | CCCC(=O)c1cc(C#N)c(N2CCC(C(=O)NS(=O)(=O)C3(c4ccccc4)CC3)CC2)nc1C | 3.9 |  | 160 nM | > 100 µM | 5.2 ×10⁻⁶ cm/s | > 1.92 h | 

The remaining compounds from weak to strong by IC50 (P2Y purinoceptor 12 [2]), led by results:

Row | logD (physchem) | Papp A→B at 1 h, 10 µM (in vitro [1]) | IC50 (P2Y purinoceptor 12 [2]) | solubility [3] | Papp A→B at 1 h, 10 µM [4] | half-life (in vitro [5]) | SMILES | also measured
8 | 2.8 | 0.32 ×10⁻⁶ cm/s | 100 nM | > 100 µM | 0.3 ×10⁻⁶ cm/s | > 1.92 h | CCCC(=O)c1cc(C#N)c(N2CCC(C(=O)NS(=O)(=O)Cc3ccccc3)CC2)nc1C | 
9 | 2.7 | < 0.1 ×10⁻⁶ cm/s | 93 nM |  |  |  | CCCC(=O)c1cc(C#N)c(N2CCC(C(=O)NS(=O)(=O)Cc3ccccc3)CC2)nc1CF | 
10 | 3.4 |  | 59 nM | > 100 µM | 1.4 ×10⁻⁶ cm/s | > 1.92 h | CCCC(=O)c1cc(C#N)c(N2CCC(C(=O)NS(=O)(=O)Cc3ccc(C)cc3)CC2)nc1C | 
11 | 3.4 |  | 57 nM | > 100 µM | 0.4 ×10⁻⁶ cm/s | > 1.92 h | CCCC(=O)c1cc(C#N)c(N2CCC(C(=O)NS(=O)(=O)Cc3ccc(Cl)cc3)CC2)nc1C | 
12 | 3 |  | 42 nM | > 100 µM | 0.3 ×10⁻⁶ cm/s | > 1.92 h | CCCC(=O)c1cc(C#N)c(N2CCC(C(=O)NS(=O)(=O)Cc3ccc(F)cc3F)CC2)nc1C | 
13 |  | 2 ×10⁻⁶ cm/s | 19 nM | 78 µM (≈ 41.1 µg/mL) |  | > 1.92 h | CCCC(=O)c1cc(C#N)c(N2CCC(C(=O)NS(=O)(=O)C3(c4ccccc4)CC3)CC2)nc1SC | Activity [6]: inactive; ID80 (Canis familiaris [7]): 0.052 µmol/kg/min; inhibition (Canis familiaris [7]; Canis lupus familiaris): Dose-dependent effect; IC50 (P2Y purinoceptor 12 [8]): 41 nM; Activity (Canis familiaris [9]): Toxic; fold change (FC) (Canis familiaris [10]): 6.7; Activity [11]: inactive; IC50 (P2Y purinoceptor 12 [12]): 126 nM; half-life [13]: 5.2 h; Fu (Plasma): 0.41%; AUC [14]: 6.7 µM·h; IC50 (P2Y purinoceptor 12 [15]): 23 nM; IC50 (P2Y purinoceptor 12 [16]): 4 nM; ID80 (Canis familiaris [17]): 0.005 µmol/kg/min; Activity [18]: inactive
14 | 3.1 | 0.3 ×10⁻⁶ cm/s | 17 nM | > 100 µM |  | > 1.92 h | CCCC(=O)c1cc(C#N)c(N2CCC(C(=O)NS(=O)(=O)Cc3ccccc3)CC2)nc1SC | 

— ChEMBL document CHEMBL3286224, “Optimization of ketone-based P2Y(12) receptor antagonists as antithrombotic agents: pharmacodynamics and receptor kinetics considerations” (Bioorg Med Chem Lett, 2014)
